Reference: paper PMC3276251 (Chemical Research in Toxicology, 2011)
“Also recorded” adds a separate entry of the source. Read-outs that look alike come from different tables or passages of the source.

Assays:
[1] = assay type: in vivo, male Wistar rats; conditions: 2 mg AA-I subcutaneously; for Average concentration in 24-hour collected urine: five rats, standard deviation in parentheses; for Amount in the 24 hr urine sample: Wistar rats; for Presence in collected rat urine: 24 hr urine
[2] = Isolated perfused rat kidney; assay type: in vitro ADME, Sprague-Dawley rats; conditions: for XR (excretion ratio = CLR/CLFILT) / CLFILT (filtration clearance) / Cumulative excretion (urinary) / Kidney accumulation / CL renal at 50 µM: 50 µM dose; for XR (excretion ratio = CLR/CLFILT): AUC method; for CLFILT (filtration clearance): GFR × fu; for Cumulative excretion (urinary) / Kidney accumulation: at 80 min post-dose; for Average amount in perfusate per 10-min period / Average amount in urine per 10-min period: 40–50, 50–60, 60–70 and 70–80 min periods, S.D. in parenthesis; for Concentration in perfusate / Concentration in urine: 70–80 min period, perfused with 50 µM AA-I; for Cumulative AA-I excretion in the urine (Xu): eight periods (0–80 min); for Average excretion ratio (XR): mean (S.D.) of 7 collection periods 10–80 min, XR = Cl/(fu × GFR), Cl = Cu × UFR/Cp; for Concentration of AA-I in the urines: last periods; for Concentration of AA-I in the urines / Concentration in the urines: more or less constant; for CL renal at 50 µM: male, Sprague-Dawley, rat, CLR (renal clearance), cumulative urinary excretion / AUC 0–80 min post-dose; for Concentration in the urines: 30–80 min
[3] = molecular target: albumin in perfusate (Bos taurus, UniProt P02769); experiment: Perfusate binding by ultrafiltration; assay type: in vitro ADME
albumin in perfusate, sequence (P02769 25-607): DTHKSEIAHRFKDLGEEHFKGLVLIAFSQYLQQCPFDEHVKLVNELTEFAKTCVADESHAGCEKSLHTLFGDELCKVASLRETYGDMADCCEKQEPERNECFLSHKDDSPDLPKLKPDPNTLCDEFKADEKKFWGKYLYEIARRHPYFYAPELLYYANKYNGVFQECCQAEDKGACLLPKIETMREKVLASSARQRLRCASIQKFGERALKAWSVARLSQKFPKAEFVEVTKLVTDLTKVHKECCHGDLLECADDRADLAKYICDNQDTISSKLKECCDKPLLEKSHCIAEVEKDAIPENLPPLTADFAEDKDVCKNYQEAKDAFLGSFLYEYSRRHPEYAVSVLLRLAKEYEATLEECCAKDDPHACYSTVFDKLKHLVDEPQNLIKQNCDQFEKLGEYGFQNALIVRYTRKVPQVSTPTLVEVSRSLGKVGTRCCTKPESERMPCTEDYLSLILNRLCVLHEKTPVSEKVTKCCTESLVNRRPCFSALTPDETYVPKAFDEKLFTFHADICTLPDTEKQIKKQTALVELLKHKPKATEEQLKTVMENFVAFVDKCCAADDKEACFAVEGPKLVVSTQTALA

Molecule | Average concentration in 24-hour collected urine [1] | Average amount in perfusate per 10-min period ([2]; Kidney A) | Average amount in urine per 10-min period ([2]; Kidney A) | Concentration in perfusate ([2]; Kidney A) [µM] | Concentration in urine ([2]; Kidney A) [µM] | Average excretion ratio (XR) ([2]; Kidney A) | Average amount in perfusate per 10-min period ([2]; Kidney B) | Average amount in urine per 10-min period ([2]; Kidney B) | Concentration in perfusate ([2]; Kidney B) [µM] | Concentration in urine ([2]; Kidney B) [µM] | Average excretion ratio (XR) ([2]; Kidney B) | Amount in the 24 hr urine sample [1] | also measured
COc1cccc2c1cc([N+](=O)[O-])c1c(C(=O)O)cc3c(c12)OCO3 [AA-I, 8-methoxy-6-nitro-phenanthro[3,4-d]-1,3-dioxole-5-carboxylic acid] | 68 (17) µg/Lt | 1441 (139) nanomoles | 0.36 (0.05) nanomoles | 16.07 | 0.48 | 0.14 (0.05) | 2447 (298) nanomoles | 1.24 (0.32) nanomoles | 23.8 | 0.94 | 0.24 (0.05) | – | XR (excretion ratio = CLR/CLFILT) ([2]; Kidney A): 0.10; CLFILT (filtration clearance) ([2]; Kidney A): 0.0146 mL/min; Cumulative excretion (urinary) ([2]; Kidney A): 0.063 % dose; Kidney accumulation ([2]; Kidney A): 68 % dose; Cumulative AA-I excretion in the urine (Xu) ([2]; Kidney A): 2.5 µmol; XR (excretion ratio = CLR/CLFILT) ([2]; Kidney B): 0.26; CLFILT (filtration clearance) ([2]; Kidney B): 0.0138 mL/min; Cumulative excretion (urinary) ([2]; Kidney B): 0.162 % dose; Kidney accumulation ([2]; Kidney B): 53 % dose; Cumulative AA-I excretion in the urine (Xu) ([2]; Kidney B): 6.5 µmol; Perfusate concentration of AA-I ([2]; Rat A, at 75 min): ca. 16 µM; Concentration of AA-I in the urines ([2]; Rat A): ~0.5 µM; Perfusate concentration of AA-I ([2]; Rat B, at 75 min): ~23 µM; Concentration of AA-I in the urines ([2]; Rat B): ~1.2 µM; Amounts of AA-I in perfusate and urines ([2]; end of the experiment (80 min)): less than 50 % of the dose; CL renal at 50 µM ([2]; Kidney A): 0.0014 mL/min; CL renal at 50 µM ([2]; Kidney B): 0.003 mL/min; Perfusate concentration of AA-I ([2]; sample taken at 15 min): ca. 28 µM; fraction unbound [3]: 0.0225
O=C(O)c1cc2c(c3c1c([N+](=O)[O-])cc1c(O)cccc13)OCO2 [AA-Ia, aristolochic acid Ia] | 7900 (1300) µg/Lt | 71.6 (31.0) nanomoles | 0.72 (0.11) nanomoles | 1.24 | 0.68 | 12 (10) | 38 (10) nanomoles | 6.7 (2.6) nanomoles | 0.42 | 4.38 | 130 (77) | 14.3 % of the dose | Concentration in the urines ([2]; rat A): ca. 1 µM; Concentration in the urines ([2]; rat B): ~7 µM; fu (fraction unbound to albumin in perfusate) ([3]; ultrafiltration, perfusate): 0.0220
O=C(O)c1cc2c(c3c1c([N+](=O)[O-])cc1c(OS(=O)(=O)O)cccc13)OCO2 [AA-Ia-O-S, 8-hydroxy-3,4-methylenedioxy-10-nitro-1-phenanthrenecarboxylic acid O-sulfate] | – | – | 0.36 (0.05) nanomoles | – | 0.36 | – | – | 0.96 (0.28) nanomoles | – | 0.74 | – | – | Presence in collected rat urine ([1]; listed as AA-Ia-O-S (5)): could only occasionally be observed by UV detection; also recorded: trace amounts; Identification in the perfusate ([2]; IPK): could not be identified
COc1cccc2c1cc1c3c(cc4c(c32)OCO4)C(=O)N1 [L-I, aristolactam I] | 5.4 (3.8) µg/Lt | 0.086 (0.062) nanomoles | 0.029 (0.013) nanomoles | 0.002 | 0.053 | 130 (85) | 0.35 (0.05) nanomoles | 0.034 (0.015) nanomoles | 0.018 | 0.055 | 33 (22) | 0.01 % of the dose | fraction unbound [3]: 0.0235
O=C1Nc2cc3c(OC4OC(C(=O)O)C(O)C(O)C4O)cccc3c3c4c(cc1c23)OCO4 [L-Ia-O-G, 8-hydroxy-3,4-methylenedioxy-10-amino-1-phenanthrene-carboxylic acid lactam O-glucuronide] | 66 (54) µg/Lt | – | 0.019 (0.007) nanomoles | – | 0.031 | – | – | 0.012 (0.009) nanomoles | 0.014 | 0.021 | – | 0.09 % of the dose | –
O=C1Nc2cc3c(OS(=O)(=O)O)cccc3c3c4c(cc1c23)OCO4 [L-Ia-O-S, 8-hydroxy-3,4-methylenedioxy-10-amino-1-phenanthrenecarboxylic acid lactam O-sulfate] | 53 (24) µg/Lt | – | – | – | – | – | – | – | – | – | – | 0.09 % of the dose | –
O=C(O)c1cc2c(c3c1ccc1c(O)cccc13)OCO2 [compound 9, 3,4-methylenedioxy-8-hydroxy-1-phenanthrene-1-carboxylic acid] | – | – | – | – | – | – | – | – | – | – | – | – | Presence in collected rat urine [1]: could only occasionally be observed by UV detection
aristolactam Ia [L-Ia] | 1600 (678) µg/Lt | 0.97 (0.52) nanomoles | 0.10 (0.03) nanomoles | 0.010 | 0.16 | 62 (50) | 0.29 (0.09) nanomoles | 0.089 (0.071) nanomoles | 0.024 | – | 160 (131) | 3.4 % of the dose | –
